Measurements: patent EP0427843B1, “SPECIFIC INHIBITOR FOR RETROVIRUS REVERSE TRANSCRIPTASE, AND ITS APPLICATION AS A MEDICAMENT” (BLOUGH, Herbert A., Dr., priority 1989, dated 1990)
“Also recorded” adds a separate entry of the source. Read-outs that look alike come from different tables or passages of the source.

Tests used:
HIV-RT = molecular target: T1, HIV-RT (Human immunodeficiency virus type 1 group M subtype B, UniProt P03366); format: biochemical; conditions: for effet inhibiteur sur la HIV1-RT: qualitative, autoradiogram, aurothiopropanol 0 à 2 mM (Figure 7), AZT 0,1 »M à 1 mM (Figure 8)
T1 construct: Transcriptase inverse: l'enzyme active du point de vue enzymatique, purifiée, clonée, a été préparée dans Escherichia coli; made in house; host or cells: Escherichia coli
Description: (§1) Transcriptase inverse: l'enzyme active du point de vue enzymatique, purifiée, clonée, a été préparée dans Escherichia coli à l'aide de la technique précédemment décrite par Hizi A., McGill C., Hugues G., Proc. Natl. Acad. Sci. USA 85, 1218-1222 (1988). Le dosage de la R.T. a été effectuée à l'aide de matrice d'ADN (au hasard et avec des séquences HIV) et de primer(s) marqué(s) (brins d'initiation) par radioactivité. Après formation de complexes entre la matrice d'ADN et les primers, la R.T. a été ajoutée et incubée. Diverses concentrations d'inhibiteur ont été ajoutées soit avant soie après que le, ou les complexes, aient été formés. L'initiation et l'élongation de la chaîne ont été étudiées à l'aide de P.A.G.E. à 20% [Shane D.L., Goodman M.F., Echols N.A., Nucleic Acids Res. 16, 1218-1222 (1988] et les produits analysés par autoradiographie. Différentes matrices et conditions ont été utilisées pour distinguer ces fonctions. En outre, de la R.T. disponible dans le commerce provenant du virus de myéloblastose aviaire a été également utilisée.
(§2) Le dosage de l'effet des inhibiteurs sur la R.T. était le suivant: • A) On prépare un mélange réactionnel de […] contenant: • . ADN matrice 10⁻⁸M • . ADN primer 4 x 10⁻¹⁰M/ADN primer 5' [³²P] • . 2 »l de tampon HIV-RT ([10x] (500 mM Tris-HCl • . pH 7,8; 60 mM MgCl₂; 10 mM dithiothréitol; 500 mM KCl); et • . de l'eau bidistillée pendant […] à 37°C. • B) On ajoute 1 unité de HIV-RT (une unité correspond à l'activité enzymatique qui incorpore 1 nmol de [³H] TMP en produit insoluble dans l'acide en 10 mn à 37°C avec du poly(A)-(dT)₁₅ comme substrat) pendant 10 min à 37°C. • C) On ajoute un mélange de désoxy nucléotide triphosphates (dXTPs) contenant 0,25 mM de chaque dXTP pour un volume de mélange final de 20 »l pendant 5 minutes à 37°C. • D) Pour tester le ou les inhibiteurs, diverses concentrations de ces produits (sous un volume constant) sont ajoutées (selon Etape B) au mélange des dXTPs. Le mélange réactionnel est incubé à 37°C pendant […]. • E) On fait cesser la réaction par de l'EDTA 10 nM dans le formamide à 90%. • F) Des échantillons sont chauffés à 90°C pendant 5 mn et les produits séparés par électrophorèse sur gels de Polyacrylamide à 20% en présence d'urée. • G) Les variations dans l'élongation, la synthèse, etc... sont détectées par autoradiographie et testées par comparaison avec des "témoins" sans inhibiteur.
Le mélange est incubé pendant 5 mn à 37°C. • dans le cas (c) l'enzyme, l'hybride primer-matrice et 2 des 4 désoxy-ribonucléotides sont ajoutés et incubés pendant 5 mn à 37°C.

AMV-RT = test: AMV reverse transcriptase inhibition, primer extension, PAGE and autoradiography; format: biochemical, virus de myéloblastose aviaire; conditions: for effet sur la R.T. (AMV): qualitative
Description: as §1, §2

[1] = molecular target: T2, DNA polymérase alpha de placenta humain (Homo sapiens, UniProt P09884); test: Effect on human DNA polymerase alpha; format: biochemical
T2 construct: la DNA polymérase alpha de placenta humain; tissue Dr Olga Lavrik, Novosibirsk (gift); host or cells: human placenta

[2] = molecular target: T3, DNA polymérase alpha de foie de rat (Rattus norvegicus, UniProt O89042); test: Effect on rat DNA polymerase alpha; format: biochemical; conditions: partially purified enzyme; sensitive only above the value
T3 construct: la DNA polymérase alpha de foie de rat partiellement purifiée; tissue Dr A M de Recondo, Villejuif (gift); host or cells: rat liver
T3 sequence (O89042 1-1451): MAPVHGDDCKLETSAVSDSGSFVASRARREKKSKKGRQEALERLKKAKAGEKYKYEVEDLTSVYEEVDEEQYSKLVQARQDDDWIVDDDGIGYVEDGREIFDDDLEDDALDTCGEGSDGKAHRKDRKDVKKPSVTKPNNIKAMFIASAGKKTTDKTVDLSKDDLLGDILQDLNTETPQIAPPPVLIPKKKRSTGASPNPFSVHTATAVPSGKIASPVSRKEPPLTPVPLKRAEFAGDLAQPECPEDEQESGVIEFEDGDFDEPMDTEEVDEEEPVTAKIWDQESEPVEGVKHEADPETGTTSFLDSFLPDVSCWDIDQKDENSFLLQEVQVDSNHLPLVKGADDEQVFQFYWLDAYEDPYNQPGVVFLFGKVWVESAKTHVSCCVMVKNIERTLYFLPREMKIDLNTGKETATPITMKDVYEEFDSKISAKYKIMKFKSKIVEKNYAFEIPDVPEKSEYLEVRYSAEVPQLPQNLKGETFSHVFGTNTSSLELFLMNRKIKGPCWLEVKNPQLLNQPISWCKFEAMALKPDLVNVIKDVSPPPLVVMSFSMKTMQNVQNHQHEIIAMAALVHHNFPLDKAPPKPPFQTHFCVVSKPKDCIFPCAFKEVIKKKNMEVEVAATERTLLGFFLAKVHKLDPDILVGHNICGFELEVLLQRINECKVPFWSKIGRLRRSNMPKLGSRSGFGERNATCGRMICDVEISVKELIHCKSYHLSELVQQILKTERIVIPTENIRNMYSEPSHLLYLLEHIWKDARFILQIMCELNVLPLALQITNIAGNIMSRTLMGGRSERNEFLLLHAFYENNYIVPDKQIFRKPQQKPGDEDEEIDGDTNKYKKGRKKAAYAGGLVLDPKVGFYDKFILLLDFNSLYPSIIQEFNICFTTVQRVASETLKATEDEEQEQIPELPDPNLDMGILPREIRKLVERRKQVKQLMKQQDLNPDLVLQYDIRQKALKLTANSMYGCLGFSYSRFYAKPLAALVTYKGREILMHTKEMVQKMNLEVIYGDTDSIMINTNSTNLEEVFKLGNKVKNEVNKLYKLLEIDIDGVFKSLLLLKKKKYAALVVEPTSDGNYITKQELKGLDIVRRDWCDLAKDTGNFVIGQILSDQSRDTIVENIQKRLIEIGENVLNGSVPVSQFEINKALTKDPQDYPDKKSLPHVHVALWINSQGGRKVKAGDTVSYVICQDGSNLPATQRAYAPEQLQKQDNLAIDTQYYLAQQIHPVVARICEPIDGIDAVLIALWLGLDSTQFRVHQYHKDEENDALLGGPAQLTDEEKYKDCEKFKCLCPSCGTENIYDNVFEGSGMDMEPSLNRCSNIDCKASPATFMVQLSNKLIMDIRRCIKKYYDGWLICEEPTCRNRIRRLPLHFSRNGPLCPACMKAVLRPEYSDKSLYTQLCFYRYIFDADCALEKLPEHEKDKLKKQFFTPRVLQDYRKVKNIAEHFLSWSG

[3] = molecular target: T4, DNA polymérase I de Escherichia coli (Escherichia coli, UniProt P00582); test: Effect on E. coli DNA polymerase I; format: biochemical
T4 construct: purchased BRL

[4] = molecular target: association enzyme-matrice (HIV1-RT / hybride primer-matrice) (Human immunodeficiency virus type 1 group M subtype B, UniProt P03366); conditions: enzyme 0,15 nM à 1nM; aurothioglucose 0,1 »M à 100 »M
Description: On aussi effectué la filtration de l'enzyme et de l'hybride primeur-matrice en présence de concentration croissante de l'aurothioglucose. Les conditions expérimentales sont celles décrites précédemment.

[5] = tested on: glycosylation de gp120 ou gp41; test: Effect on viral glycoprotein synthesis (glycosylation) in infected cells; format: cell-based, HIV-1; conditions: for minimal effective concentration: Human immunodeficiency virus 1, read-out: concentration efficace sur la glycosylation
Description: Effets de médicaments sur la synthèse de glycoprotéines: des cellules CEM ou MT-4 ont été infectées par HIV-1; 4 heures après l'infection, une moitié des cellules a été marquées avec [2³H]Man ou [6³H]GlcNAc à 2,5-5,9 »Ci. Les milieux ont été changés et de l'inhibiteur frais (potentiel) et 2,5 »Ci (ou 5 »Ci) de l'isotope approprié ont été ajoutés. Les cellules ont été lysées à trois et sept jours après l'infection et les lysats cellulaires ont été clarifiées par centrifugation à 12 000 g; qp120 et gp41 ont été l'une et l'autre isolées par immunoprécipitation sur colonnes et les produits, analysés sur gels de polyacrylamide à 12% et fluorographie [Kumarasamy R & Blough H.A., Biochem. Biophys. Res. Commun. 109, 1108-1115 (1982)]. Les virus ont été récoltés et purifiés par centrifugation à vitesse contrôlée sur gradients préformés de citrate de sodium ou métrazamide à 5-40%, et analysés de façon similaire.

[6] = Cytotoxicity (cell doubling time, trypan blue exclusion); format: cell-based; conditions: human, alex and mt-4 cells; cytotoxic at concentrations exceeding the value; read-out: concentrations cytotoxiques
Description: (§3) Il a également été montré que les composés de l'invention sont moins toxiques que leurs analogues de base, en mesurant, à l'aide du microscope photonique, le temps de duplication cellulaire et l'exclusion du bleu trypan.

cellules ALEX et MT-4 = test: as above; format: cell-based
Description: as §3

T4 sequence (P00582 whole entry): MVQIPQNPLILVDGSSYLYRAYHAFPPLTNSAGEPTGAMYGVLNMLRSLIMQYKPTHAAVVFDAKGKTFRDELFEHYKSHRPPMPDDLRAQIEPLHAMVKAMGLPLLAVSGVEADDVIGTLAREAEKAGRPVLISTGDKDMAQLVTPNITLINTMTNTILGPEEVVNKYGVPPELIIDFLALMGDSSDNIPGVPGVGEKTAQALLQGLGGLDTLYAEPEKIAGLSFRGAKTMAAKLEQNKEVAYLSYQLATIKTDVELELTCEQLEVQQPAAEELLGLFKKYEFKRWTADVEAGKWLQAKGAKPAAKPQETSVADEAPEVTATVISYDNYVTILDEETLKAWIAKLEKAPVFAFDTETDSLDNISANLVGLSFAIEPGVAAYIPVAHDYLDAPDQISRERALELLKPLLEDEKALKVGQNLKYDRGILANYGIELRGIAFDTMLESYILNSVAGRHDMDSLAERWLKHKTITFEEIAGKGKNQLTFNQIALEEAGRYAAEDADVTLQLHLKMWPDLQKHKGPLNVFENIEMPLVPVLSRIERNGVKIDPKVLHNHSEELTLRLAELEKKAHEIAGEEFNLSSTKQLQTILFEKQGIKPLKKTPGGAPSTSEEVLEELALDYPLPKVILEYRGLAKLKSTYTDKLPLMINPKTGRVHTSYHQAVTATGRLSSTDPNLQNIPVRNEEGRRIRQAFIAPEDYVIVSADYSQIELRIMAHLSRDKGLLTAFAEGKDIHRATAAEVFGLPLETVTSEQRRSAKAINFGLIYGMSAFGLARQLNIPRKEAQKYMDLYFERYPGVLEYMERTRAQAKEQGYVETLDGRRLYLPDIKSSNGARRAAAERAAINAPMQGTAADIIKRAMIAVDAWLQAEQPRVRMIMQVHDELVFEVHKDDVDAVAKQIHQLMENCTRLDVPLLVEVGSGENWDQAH
T2 sequence (P09884 whole entry): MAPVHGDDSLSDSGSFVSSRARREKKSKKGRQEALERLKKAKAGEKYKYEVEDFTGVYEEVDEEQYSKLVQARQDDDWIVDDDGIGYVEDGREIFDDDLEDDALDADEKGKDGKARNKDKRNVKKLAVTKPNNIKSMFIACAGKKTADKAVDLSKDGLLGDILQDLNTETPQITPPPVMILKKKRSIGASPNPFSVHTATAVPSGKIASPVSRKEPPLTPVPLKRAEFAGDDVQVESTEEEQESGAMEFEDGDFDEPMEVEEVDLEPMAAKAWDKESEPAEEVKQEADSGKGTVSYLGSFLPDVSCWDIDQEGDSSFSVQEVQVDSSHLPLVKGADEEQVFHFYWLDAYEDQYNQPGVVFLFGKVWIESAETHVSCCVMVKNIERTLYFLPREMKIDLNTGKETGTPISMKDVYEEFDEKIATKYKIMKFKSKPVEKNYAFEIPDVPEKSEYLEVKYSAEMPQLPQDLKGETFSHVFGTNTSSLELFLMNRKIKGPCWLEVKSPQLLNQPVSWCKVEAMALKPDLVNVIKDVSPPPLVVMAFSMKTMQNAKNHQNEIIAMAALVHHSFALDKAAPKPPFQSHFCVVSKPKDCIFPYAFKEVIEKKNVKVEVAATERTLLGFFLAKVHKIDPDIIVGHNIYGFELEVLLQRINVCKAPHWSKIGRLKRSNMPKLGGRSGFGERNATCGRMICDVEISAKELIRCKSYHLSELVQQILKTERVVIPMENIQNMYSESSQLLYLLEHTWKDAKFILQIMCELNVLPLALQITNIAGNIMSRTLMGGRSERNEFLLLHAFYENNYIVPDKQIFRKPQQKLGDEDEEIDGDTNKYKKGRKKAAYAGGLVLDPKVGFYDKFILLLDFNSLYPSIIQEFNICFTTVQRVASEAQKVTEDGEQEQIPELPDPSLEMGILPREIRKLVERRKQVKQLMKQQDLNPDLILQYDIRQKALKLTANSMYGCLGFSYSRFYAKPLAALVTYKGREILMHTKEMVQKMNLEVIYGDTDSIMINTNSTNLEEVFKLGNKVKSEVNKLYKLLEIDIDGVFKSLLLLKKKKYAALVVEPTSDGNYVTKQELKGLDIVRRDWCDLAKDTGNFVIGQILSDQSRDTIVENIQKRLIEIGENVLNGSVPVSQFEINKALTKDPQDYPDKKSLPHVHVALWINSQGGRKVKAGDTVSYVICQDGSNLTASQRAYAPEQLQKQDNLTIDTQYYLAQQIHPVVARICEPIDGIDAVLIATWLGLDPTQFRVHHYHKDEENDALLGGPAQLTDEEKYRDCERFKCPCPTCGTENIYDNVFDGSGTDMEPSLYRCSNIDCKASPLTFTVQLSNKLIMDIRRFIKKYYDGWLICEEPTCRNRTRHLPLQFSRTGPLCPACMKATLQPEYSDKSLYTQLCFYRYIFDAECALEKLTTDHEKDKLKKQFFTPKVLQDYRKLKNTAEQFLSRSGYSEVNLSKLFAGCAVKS
T2 sequence (Q14181 whole entry partner): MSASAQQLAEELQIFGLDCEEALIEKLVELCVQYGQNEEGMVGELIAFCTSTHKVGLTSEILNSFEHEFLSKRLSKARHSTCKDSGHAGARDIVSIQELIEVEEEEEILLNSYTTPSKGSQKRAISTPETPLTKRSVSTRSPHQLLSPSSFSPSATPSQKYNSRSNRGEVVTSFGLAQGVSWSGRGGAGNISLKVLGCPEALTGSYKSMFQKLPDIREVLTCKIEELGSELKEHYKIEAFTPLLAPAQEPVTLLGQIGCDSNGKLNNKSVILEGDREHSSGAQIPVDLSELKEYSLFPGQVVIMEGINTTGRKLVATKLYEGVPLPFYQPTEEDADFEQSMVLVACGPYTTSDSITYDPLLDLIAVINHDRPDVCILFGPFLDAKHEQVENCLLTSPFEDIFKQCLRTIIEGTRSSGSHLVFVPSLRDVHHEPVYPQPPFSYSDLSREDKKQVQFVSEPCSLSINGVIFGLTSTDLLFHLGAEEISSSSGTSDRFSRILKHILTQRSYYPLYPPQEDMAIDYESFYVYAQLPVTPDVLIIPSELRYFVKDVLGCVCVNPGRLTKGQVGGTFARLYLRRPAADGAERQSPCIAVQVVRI
T2 sequence (P49642 whole entry partner): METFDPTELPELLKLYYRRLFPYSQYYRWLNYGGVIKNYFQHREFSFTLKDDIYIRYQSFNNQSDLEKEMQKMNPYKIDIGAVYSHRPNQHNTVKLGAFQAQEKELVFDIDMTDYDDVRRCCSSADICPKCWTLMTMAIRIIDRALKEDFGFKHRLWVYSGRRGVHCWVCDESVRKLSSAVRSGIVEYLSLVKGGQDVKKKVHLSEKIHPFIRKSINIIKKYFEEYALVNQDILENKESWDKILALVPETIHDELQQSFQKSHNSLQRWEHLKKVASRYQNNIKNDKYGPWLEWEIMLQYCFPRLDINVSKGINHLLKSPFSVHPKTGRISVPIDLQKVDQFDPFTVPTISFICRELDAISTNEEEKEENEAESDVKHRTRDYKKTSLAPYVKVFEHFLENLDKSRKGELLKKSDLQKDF
T2 sequence (P49643 whole entry partner): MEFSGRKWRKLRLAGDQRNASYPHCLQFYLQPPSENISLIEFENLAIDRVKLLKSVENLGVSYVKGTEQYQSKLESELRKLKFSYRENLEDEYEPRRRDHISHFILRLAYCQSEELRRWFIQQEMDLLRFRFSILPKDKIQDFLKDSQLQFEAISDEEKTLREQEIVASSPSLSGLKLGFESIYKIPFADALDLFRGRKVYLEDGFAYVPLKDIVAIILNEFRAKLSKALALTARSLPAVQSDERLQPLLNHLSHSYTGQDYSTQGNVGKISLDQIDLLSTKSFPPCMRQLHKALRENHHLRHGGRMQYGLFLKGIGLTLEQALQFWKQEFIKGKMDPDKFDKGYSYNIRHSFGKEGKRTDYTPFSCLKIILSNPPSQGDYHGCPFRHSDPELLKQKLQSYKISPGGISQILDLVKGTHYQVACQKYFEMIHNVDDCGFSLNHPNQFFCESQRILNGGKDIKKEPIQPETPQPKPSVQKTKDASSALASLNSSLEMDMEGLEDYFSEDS

OC[C@H]1O[C@@H]([S][Au])[C@H](O)[C@@H](O)[C@@H]1O [1-aurothioglucose, 1-bêta-D-aurothioglucose]
inhibition en utilisant des matrices d'ARN (HIV-RT; RNA templates compared with DNA templates, Figure 3): résultats comparables
sensibilité de l'enzyme complexée à la matrice (b) et en phase d'élongation (c) (HIV-RT; cases (b) and (c) compared): la même sensibilité
effets combinés de la zidovudine (AZT) et de l'aurothioglucose (HIV-RT; combined with zidovudine (AZT)): additifs et qu'il existe une action synergique
quantité efficace pour bloquer le complexe HIV-R.T.-Substrat (HIV-RT; complexe HIV-R.T.-Substrat à 40 nm, Figure 1): 3 »m
diminution de la constante d'inhibition (Ki) (HIV-RT; free enzyme, case (a), compared with cases (b) and (c)): 33%
activité par rapport à l'AZT triphosphate (HIV-RT; qualitative comparison): considérablement plus actif
effet sur l'élongation des chaînes d'ADN par l'AMV-RT (AMV-RT; Figure 5, lane 2, added after polymerisation of six nucleotides): inhibition de l'élongation de la chaîne
concentrations nécessaires pour bloquer AMV-RT (AMV-RT; compared with HIV-RT, Figure 2): concentrations supérieures
activité inhibitrice sur les DNA polymèrases humaines ([1]; in vitro): activité inhibitrice faible
concentration en drogue à laquelle la polymérase est sensible ([1]; insensitive at concentrations lower than or equal to the value): > 1 mM
concentration en aurothioglucose à laquelle la polymérase est sensible [2]: > 100 µM
inhibition de la DNA-polymérase-1 d'Escherichia Coli ([3]; Figure 6, autoradiogram): inhibition
concentration en aurothioglucose à laquelle la polymérase est sensible ([3]; sensitive above the value): > 50 µM
association enzyme-matrice [4]: affaiblie

OC[C@H]1O[C@@H](S)[C@H](O)[C@@H](O)[C@@H]1O [1-thioglucose, 1-bêta-D-thioglucose]
effet inhibiteur sur la HIV1-RT (HIV-RT): n'ont pas présenté d'effet
effet inhibiteur sur la HIV1-RT (HIV-RT; listed as 1-bêta-D-thioglucose): aucun effet
effet sur la R.T. (AMV) (AMV-RT): n'ont pas présenté d'effet
activité à l'encontre de la glycosylation de gp120 ou gp41 [5]: actifs
minimal effective concentration [5]: ~0.0035 µM
MCC [6]: > 2 mM
toxicité vis-à-vis des cellules (cellules ALEX et MT-4): trop toxiques

OC[C@H]1S[C@@H](O)[C@H](O)[C@@H](O)[C@@H]1O [5-thioglucose, 5-bêta-D-thioglucose]
effet inhibiteur sur la HIV1-RT (HIV-RT): n'ont pas présenté d'effet
effet inhibiteur sur la HIV1-RT (HIV-RT; listed as 5-bêta-D-thioglucose): aucun effet
effet sur la R.T. (AMV) (AMV-RT): n'ont pas présenté d'effet
activité à l'encontre de la glycosylation de gp120 ou gp41 [5]: actifs
minimal effective concentration [5]: ~0.0035 µM
MCC [6]: > 2 mM
toxicité vis-à-vis des cellules (cellules ALEX et MT-4): trop toxiques

Cc1cn([C@H]2C[C@H](N=[N+]=[N-])[C@@H](COP(=O)(O)OP(=O)(O)OP(=O)(O)O)O2)c(=O)[nH]c1=O [AZT phosphorylé, 3'-Azido-DTTP, reference compound]
effet inhibiteur sur la HIV1-RT (HIV-RT): inhibition

aurothiopropanol
effet inhibiteur sur la HIV1-RT (HIV-RT): inhibition; also recorded: effet inhibiteur
